{
  "source": "patent US9284325B2",
  "about": "“Spectinamides as anti-tuberculosis agents” (UNIVERSITY OF TENNESSEE RESEARCH FOUNDATION, priority 2009, dated 2016)",
  "key": {"[1]": {"system": "Strep. pneumoniae DAW27 or strain R6", "test": "MIC determination by microbroth dilution", "type": "cell-based, Streptococcus pneumoniae", "conditions": "Streptococcus pneumoniae; Strep. pneumoniae DAW27 or strain R6 (for 1443-1544); read-out: MIC S. pneumoniae"}, "[2]": {"system": "E. faecalis ATCC 33186", "test": "MIC determination by microbroth dilution", "type": "cell-based, Enterococcus faecalis", "conditions": "Enterococcus faecalis, ATCC33186"}, "[3]": {"system": "E. coli K12 ΔtolC", "test": "microbe, parasite or virus in culture", "type": "cell-based", "conditions": "Escherichia coli, read-out: MIC E. coli K12 ΔtolC"}, "[4]": {"test": "in vivo", "parameters": "species or system rats", "conditions": "male, Sprague-Dawley, rat, iv", "procedure": "Pharmacokinetic Studies: Catheterized male Sprague-Dawley rats (jugular vein alone for oral study and jugular vein and femoral vein for intravenous study) weighing approximately 225 g were obtained from Harlan Bioscience (Indianapolis, Ind., United States of America). The animals were kept on a 12 hr light/dark cycle with food and water available ad libitum. Groups of rats (n=4) received either an intravenous (IV) or oral dose of a test compound at a dose level of 10 mg/kg or 100 mg/kg, respectively. For oral administration, the animals were fasted overnight and until 4 hr after administration of test compound. Serial blood samples (approx. 250 μL) were collected pre-dose and at predetermined time points post-dose until 48 hours. Plasma was separated immediately by centrifugation (10,000 rpm for 10 min at 4° C.) and stored at −80° C. until analysis. Urine specimens were collected for a period of 48 hours following drug administration. The study protocol was approved by the institutional animal care and use committee of the University of Tennessee Health Science Center (Memphis, Tenn., United States of America).\nSample Preparation and LC-MS/MS Assay: A calibration curve ranging from 7.81-1000 μg/L was constructed for each test compound by spiking the test compound into 50 μL of blank plasma. […] Plasma proteins were precipitated by the addition of four volumes of ice cold methanol containing IS. These samples were vortexed and kept on ice for 20 minutes. Following this, the samples were centrifuged at 10,000 rpm for 10 minutes at 4° C. and the supernatants were diluted if necessary and injected onto LC-MS/MS for analysis. Chromatographic separations were carried out using a Shimadzu liquid chromatograph (Shimadzu Corporation, Kyoto, Japan) consisting of two pumps, online degasser, system controller and a CTC Leap auto sampler (Leap Technologies, Carrboro, N.C., United States of America). A gradient of methanol and 10 mM ammonium acetate at pH 3.5 was used at a flow rate of 0.4 mL/min. A Phenomenex® Luna 3μ HILIC, 100×4.6 mm column (Phenomenex, Torrance, Calif., United States of America) protected with a guard column was used for the separation. 10 μL of sample was injected onto the column and the eluate was led directly into an API 3000 triple-quadrupole mass spectrometer (Applied Biosystems ABI/MDS-Sciex, Foster City, Calif., United States of America) equipped with an electrospray ion source. The instrument was operated in the positive ion mode with nebulizer gas (NEB) at 7 psi, curtain gas (CUR) at 8 psi, collision gas (CAD) at 10 psi, ion spray voltage (IS) at +4000 V and temperature (TEM) at 500° C. The resulting multiple reaction monitoring chromatograms were used for quantification using Analyst software version 1.4.1 (Applied Biosystems ABI/MDS-Sciex, Foster City, Calif., United States of America).\nPharmacokinetic Data Analysis: Plasma concentration-time data for oral dose were analyzed by non-compartmental analysis. A two compartment open model with bolus input and first order output was used to analyze the IV plasma concentration-time data. The area under the plasma concentration-time curve from time 0 to infinity (AUCinf) was calculated by the trapezoidal rule with extrapolation to time infinity. Mean residence time (MRT), the average amount of time a particle remains in a compartment of system was calculated for IV dose using MRT=AUMCinf/AUCinf where AUMCinf is the area under the moment curve when the concentration-time curve is extrapolated to infinity. The systemic clearance (CL) was calculated using the equation CL=Doseiv/AUCinf iv, where Doseiv and AUCinf, iv are the IV dose and corresponding area under the plasma concentration-time curve from time 0 to infinity, respectively. An estimate of volume of distribution at steady state (Vss) was obtained from IV data using Vss=MRT*CL. […]"}, "[5]": {"test": "in vitro", "conditions": "African green monkey"}},
  "note": "Structures can show the parent of a compound that is named as a salt.",
  "data": [
    {"compound": "CN[C@@H]1[C@H](O)[C@H](NC)C2O[C@]3(O)C(OC2[C@H]1O)O[C@H](C)C[C@H]3NC(=O)Cc1ccccn1", "note": "(stereo partly drawn) [Compound 1329, 3′-Dihydro-3′-deoxy-4(R)-(pyridin-2yl)acetylamino spectinomycin Dihydrochloride]", "values": [
      {"measurement": "MIC", "setting": "[1]", "value": 6.25, "unit": "µg/mL"},
      {"measurement": "MIC", "setting": "[2]", "value": 100, "unit": "µg/mL"},
      {"measurement": "MIC", "setting": "[3]", "value": 50, "unit": "µg/mL"},
      {"measurement": "clearance", "setting": "[4]", "value": 13.3, "unit": "mL/min/kg"},
      {"measurement": "dose eliminated unchanged in the first 6 hours", "setting": "[4]", "value": "approx. 40%"},
      {"measurement": "excretion ratio (renal clearance to glomerular filtration rate)", "setting": "[4]", "value": 1.7},
      {"measurement": "fraction of dose excreted unchanged by the kidneys", "setting": "[4]", "value": 0.46},
      {"measurement": "hepatic extraction ratio", "setting": "[4]", "value": 0.13},
      {"measurement": "MRT", "setting": "[4]; 10 mg/kg", "value": "~5.3", "unit": "h"},
      {"measurement": "IC50 at 72 h", "setting": "[5]", "value": 2180, "unit": "µg/mL"}
    ]}
  ]
}
